Experimental data taken from PubChem BioAssay (NCI).
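A five-concentration, 48-hour dose response in 96-well plates underlies each endpoint, interpolated linearly between surrounding concentrations. Here, GI50 denotes the concentration required for 50% inhibition of growth. TGI: concentration producing complete growth inhibition.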

How the values were obtained:
Assay in all cases: NCI anticancer screen, dose series, 48 h
[1] = test system: TK-10 renal
[2] = test system: EKVX NSCLC
[3] = test system: HT29 colon
[4] = test system: IGROV1 ovarian
[5] = test system: COLO 205 colon
[6] = test system: RPMI-8226 leukemia
[7] = test system: HOP-92 NSCLC
[8] = test system: DMS 273 small cell lung
[9] = test system: SN12C renal
[10] = test system: LOX IMVI melanoma
[11] = test system: KM12 colon
[12] = test system: UACC-257 melanoma
[13] = test system: MALME-3M melanoma
[14] = test system: SK-MEL-28 melanoma
[15] = test system: SK-MEL-5 melanoma
[16] = test system: SNB-78 CNS
[17] = test system: K-562 leukemia
[18] = test system: MOLT-4 leukemia
[19] = test system: HL-60(TB) leukemia
[20] = test system: XF 498 CNS
[21] = test system: KM20L2 colon
[22] = test system: A549 NSCLC
[23] = test system: OVCAR-3 ovarian
[24] = test system: NCI-H23 lung
[25] = test system: DMS 114 small cell lung
[26] = test system: OVCAR-5 ovarian
[27] = test system: SF-295 CNS
[28] = test system: ACHN renal
[29] = test system: NCI-H460 lung
[30] = test system: U251 CNS
[31] = test system: SK-OV-3 ovarian
[32] = test system: SW-620 colon
[33] = test system: M19-MEL melanoma
[34] = test system: 786-0 renal
[35] = test system: SK-MEL-2 melanoma
[36] = test system: DLD-1 colon
[37] = test system: SNB-75 CNS
[38] = test system: LXFL 529 NSCLC
[39] = test system: CAKI-1 renal
[40] = test system: OVCAR-8 ovarian
[41] = test system: M14 melanoma
[42] = test system: CCRF-CEM leukemia
[43] = test system: NCI-H522 lung
[44] = test system: HOP-62 NSCLC
[45] = test system: A498 renal
[46] = test system: RXF 393 renal
[47] = test system: OVCAR-4 ovarian
[48] = test system: SF-268 CNS
[49] = test system: HCT-15 colon
[50] = test system: UACC-62 melanoma

[O-]c1ccccc1[C-]=Nc1ccccc1O.[O-]c1ccccc1[C-]=Nc1ccccc1O.[O]=[U]=[O] gave a GI50 [1] of 28.9 µM, a TGI [1] of 55.5 µM and a GI50 [2] of 24 µM. The TGI [2] was 62.4 µM, the GI50 [3] was 16 µM and the TGI [3] was 95.3 µM. The GI50 [4] was 21.8 µM, the TGI [4] was 71 µM and the GI50 [5] was 19 µM. It also gave a TGI [5] of 51.6 µM, a GI50 [6] of 1.59 µM and a TGI [6] of 49.5 µM. The GI50 [7] was 8.4 µM, the TGI [7] was 35.2 µM and the GI50 [8] was 13.7 µM. It also gave a TGI [8] of 59.5 µM, a GI50 [9] of 10 µM and a TGI [9] of 35.4 µM. It also gave a GI50 [10] of 9.82 µM, a TGI [10] of 68 µM and a GI50 [11] of 6.35 µM. The TGI [11] was greater than 100 µM, the GI50 [12] was 3.9 µM and the TGI [12] was 26.3 µM. For the same compound, the GI50 [13] was 12.8 µM, the TGI [13] was 30.1 µM and the GI50 [14] was 14 µM. For the same compound, the TGI [14] was 35.9 µM, the GI50 [15] was 8.38 µM and the TGI [15] was 43 µM. The GI50 [16] was 21.3 µM, the TGI [16] was 61.2 µM and the GI50 [17] was 2.79 µM. The TGI [17] was greater than 100 µM, the GI50 [18] was 2.95 µM and the TGI [18] was 65 µM. The GI50 [19] was 1.76 µM, the TGI [19] was 7.47 µM and the GI50 [20] was 20 µM. It also gave a TGI [20] of 42 µM, a GI50 [21] of 0.856 µM and a TGI [21] greater than 100 µM. The GI50 [22] was 16.2 µM, the TGI [22] was 43.9 µM and the GI50 [23] was 4.13 µM. For the same compound, the TGI [23] was 29.5 µM, the GI50 [24] was 11.3 µM and the TGI [24] was 76.5 µM. For the same compound, the GI50 [25] was 2.4 µM, the TGI [25] was 23.2 µM and the GI50 [26] was 21 µM. The TGI [26] was greater than 100 µM, the GI50 [27] was 16.4 µM and the TGI [27] was 43.5 µM. The GI50 [28] was 9.09 µM, the TGI [28] was 26.7 µM and the GI50 [29] was 14.5 µM. For the same compound, the TGI [29] was 41.2 µM, the GI50 [30] was 11.6 µM and the TGI [30] was 33.6 µM. It also gave a GI50 [31] of 43 µM, a TGI [31] of 71 µM and a GI50 [32] of 12.2 µM. It also gave a TGI [32] of 74.5 µM, a GI50 [33] of 12.3 µM and a TGI [33] of 48.6 µM. It also gave a GI50 [34] of 13.1 µM, a TGI [34] of 35.9 µM and a GI50 [35] of 13.2 µM. The TGI [35] was 37.3 µM, the GI50 [36] was 2.23 µM and the TGI [36] was 41 µM. The GI50 [37] was 25.1 µM, the TGI [37] was 64.5 µM and the GI50 [38] was 4.11 µM. It also gave a TGI [38] of 34.8 µM, a GI50 [39] of 12.5 µM and a TGI [39] of 37.3 µM. It also gave a GI50 [40] of 14.8 µM, a TGI [40] of 66.7 µM and a GI50 [41] of 10.2 µM. It also gave a TGI [41] of 41.7 µM, a GI50 [42] of 2.6 µM and a TGI [42] of 44.4 µM. It also gave a GI50 [43] of 4.01 µM, a TGI [43] of 51.8 µM and a GI50 [44] of 19.9 µM. It also gave a TGI [44] of 57.4 µM, a GI50 [45] of 22.8 µM and a TGI [45] of 46.6 µM. It also gave a GI50 [46] of 20.1 µM, a TGI [46] of 45.5 µM and a GI50 [47] of 12.1 µM. The TGI [47] was 46.8 µM, the GI50 [48] was 11.3 µM and the TGI [48] was 58.1 µM. The GI50 [49] was 3.56 µM, the TGI [49] was 36.3 µM and the GI50 [50] was 10.4 µM. The TGI [50] was 31.1 µM.
